Test results from patent US7491501B2, “Methods for identifying modulators of intracellular aggregate formation” (Auburn University, priority 2003, dated 2009).

System: p62 aggregates in HEK cells
Experiment: p62 aggregate formation by confocal/fluorescence microscopy in transfected HEK cells
Assay type: cell-based, Human
Experimental: Immunofluorescence staining—All steps were done at room temperature unless stated otherwise. The inclusion bodies were placed on poly-L-lysine coated 12 well slides (Cel-line/Erie Scientific Co., Portmouth, N.H.) and let partially dry. Inclusion bodies on the slides were fixed for 10 min in 3% paraformaldehyde (Electron Microscopy Sciences, Fort Washington, Pa.) and permeabilized with 0.1% Triton X-100 in PBS for 15 minutes. The inclusion bodies were incubated in blocking buffer (3% non fat dry milk in PBS) for 1 h, prior to incubation with primary antibodies at 4° C. overnight. After washing with PBS, the secondary antibody (Molecular Probes Inc., Eugene, Oreg.) in blocking buffer was applied for 1 h. After extensive washing in PBS, the samples were mounted using Vectashield (Vector Laboratories Inc., Burlingame, Calif.). The cells were fixed with 3% paraformaldehyde and processed similar to that of inclusion staining.
Cells were incubated with rabbit anti-myc IgG or mouse anti-HA IgG and labeled with Texas Red-conjugated anti-rabbit antibodies (red) or Oregon Green-conjugated anti-mouse antibodies (green), respectively. Merged images with overlapping immunoreactivity are shown in yellow. Note that cells expressing p62 lacking its UBA domain (p62ΔUBA) fail to form aggregates or to colocalize with ubiquitin. All experiments were replicated three independent times with similar results. Small aggregates of p62 colocalized with ubiquitin which was dependant upon the presence of a UBA domain but not the N-terminal portion of p62. Aggregation may impair the proteasome or, alternatively, impaired proteasome activity may seed aggregates. Alternatively, impairment of the proteasome may enhance the formation of p62 aggregates containing polyubiquitin.
In summary, through its UBA domain, p62 Interacts with polyubiquitinated substrates, and the UBA domain is necessary for aggregate formation.
Since TRAF6 localized to the large aggregates along with polyubiquitin (FIG. 2B), these aggregates may represent the failed attempt of the cell to rid itself of TRAF6-K63-polyubiquitinated substrates sequestered through interaction with the UBA domain. […] Altogether, these findings reveal that p62 binds proteins with K63 chains through its UBA domain and that p62 aggregates sequester TRAF6 as well as K63-polyubiquitinated substrates.
To further determine if the coassociation of tau-p62-TRAF6 and UbcH7 could be recapitulated in vitro, a cotransfection approach was undertaken. […] HEK cells were transfected with GFP-p62 followed by treatment or not with Aβ1-42 and Aβ42-1 peptides. […] This is consistent with the observation that microtubule dependent transport is important for the formation of p62 inclusions as assessed by treatment of the cells with nocodazole, a microtubule disrupting agent (9).

AAVALLPAVLLALLAP-ESASGPSEDPSVNFLK (AAVALLPAVLLALLAPESASGPSEDPSVNFLK; artificial sequence for cell permeable peptide) [TRAF6 peptide]
reduction in the formation of large aggregates (pretreatment with inhibitory dose of peptide prior to ALLN, GFP-p62 HEK cells): 60% | effect on size of the p62 aggregates (pretreatment with peptide prior to ALLN (FIG. 2D), control peptide data not shown): decrease in the size of the p62 aggregates
